PubChem BioAssay AID1200 (NMMLSC, 2008)
Activity calls are given as the source filed them. No rule for the calls is given here.

Tested on: not listed separately
Experiment: cell killing in prostate cells – flow cytometry event count, cytotoxicity control for prostate cell differentiation activator project, dose response (AID 1200)
Details: prostate cells, cell count (flow cytometry events), cytotoxicity; at 30 µM (top of the series)

Structure (SMILES) | cell count (% of control)
Cn1c(=O)[nH]c(=O)c2c1nc(Br)n2CCCSc1nc2ccccc2o1 | 227% (inactive)
Cc1cc(C)nc(N2CCC(C(=O)Nc3ccc(Oc4ccccc4)cc3)CC2)n1 | 264% (inactive)
COc1ccc(N2CCN(CCCNC(=O)CCCn3c(=O)[nH]c4ccsc4c3=O)CC2)cc1 | 330% (inactive)
Cc1nc2ncnn2c(C)c1CCC(=O)NCCCN1CCN(c2cccc(Cl)c2)CC1 | 1150% (inactive)
CCOc1ccc(NC(=O)COc2nsnc2N2CCCCC2)cc1 | 226% (inactive)
Clc1ccc(COC(Cn2ccnc2)c2ccc(Cl)cc2Cl)cc1 (centres undefined) | 350% (inactive)
N=c1n(CCN2CCCCC2)c2ccccc2n1CC(O)COc1ccccc1 (centres undefined) | 311% (inactive)
O=c1cc(-c2ccccc2)[nH]c2ccccc12 | 105% (inactive)
CCn1c(=N)n(CC(O)COc2cccc(C)c2)c2ccccc21 (centres undefined) | 266% (inactive)
COc1ccccc1NC(=O)c1nc[nH]c1C(=O)Nc1ccccc1OC | 546% (inactive)
Cc1cc(N2CCN(C)CC2)nc2ccc(NC(=O)c3ccc4c(c3)OCO4)cc12 | 102% (inactive)
COc1ccc(-c2noc(-c3cc(Cl)ccc3Cl)n2)cc1OC | 347% (inactive)
C[C@H]1CCC/C=C/C2C[C@H](O)CC2[C@H](O)/C=C/C(=O)O1 (some centres undefined) | 129% (inactive)
O=C(Cn1cc2c(n1)CCCC2)NCCCN1CCN(c2ccccc2F)CC1 | 382% (inactive)
CCN(CCNC(=O)C1CCN(Cc2nc(-c3cccc(Cl)c3)oc2C)CC1)c1ccccc1 | 141% (inactive)
Cc1ccc(Nc2cc(=O)n(C3CCCCC3)c(=O)[nH]2)cc1C | 196% (inactive)
Cc1ccc(CNc2nc3ccccc3n3nnnc23)cc1 | 348% (inactive)
CCOc1cccc2cc(-c3cn4cc(C)ccc4n3)c(=O)oc12 | 44.8% (inactive)
COc1ccc(-c2noc(CCC(=O)NCCCN3CCC(Cc4ccccc4)CC3)n2)cc1 | 276% (inactive)
Cc1ccccc1CS(=O)(=O)CCC(=O)NCCCN1CCN(c2ccccc2F)CC1 | 854% (inactive)
CCN(CCNC(=O)C1CCN(Cc2nc(-c3ccc(Cl)cc3)oc2C)CC1)c1ccccc1 | 22% (inactive)

Tested on: prostate cells, cell count (flow cytometry events), cytotoxicity
Experiment: as above
Details: not given

Structure (SMILES) | EC50
CN(C)c1ccc(CNC2CC(C)(C)NC(C)(C)C2)cc1 | > 30 µM (inactive)
COc1ccc(CCn2c(=N)c(C(=O)NCc3ccco3)cc3c(=O)n4ccccc4nc32)cc1 | 10.2 µM (inactive)
Cn1nc(-c2ccc(Cl)cc2)c2cc(C(=O)NCCCN3CCOCC3)sc21 | 10.1 µM (inactive)
CCOC(=O)c1[nH]c(C)c(C(=O)N2CCc3ccccc32)c1C | 0.139 µM
CC1CCCCN1CCNC(=O)c1cc2c(-c3ccccc3F)nn(C)c2s1 (centres undefined) | 8.61 µM
CCOC(=O)c1c(C)[nH]c(C(=O)COC(=O)C2CC2C)c1C (centres undefined) | 0.441 µM
O=S1(=O)C=C(Sc2nc3ccccc3s2)c2ccccc21 | 0.959 µM
Cc1ccccc1-c1nc(CN2CCC(C(=O)NCCCN3CCCC3)CC2)c(C)o1 | 0.358 µM (inactive)
Nc1ccc(-n2ccnc2)cc1 | 1.04 µM (inactive)
Cn1nc(-c2ccc(Cl)cc2)c2cc(C(=O)NCCCN3CCCC3)sc21 | 4.21 µM
CCc1ccc(-c2nc(CN3CCC(C(=O)NCc4ccc(F)cc4)CC3)c(C)o2)cc1 | 1.8 µM
CCCOc1ccccc1C1CC(=O)Nc2cc3c(cc21)OCO3 (centres undefined) | 0.373 µM (inactive)
COc1ccc(-c2ccc(-c3noc(-c4ccccc4)n3)c(OC)n2)cc1 | 3.16 µM (inactive)
CC(C)(C)c1ccc(C(O)CCCN2CCC(C(O)(c3ccccc3)c3ccccc3)CC2)cc1 (centres undefined) | 0.00318 µM (inactive)
CCn1c(=O)cc(SCC(=O)NCCCN2CCN(c3ccccc3F)CC2)c2ccccc21 | 15.6 µM (inactive)
CCN1CCN(c2cc(C)c3cc(NC(=O)c4ccc(Br)o4)ccc3n2)CC1 | 3.98 µM
Cn1c(C(=O)NCCCN2CCN(c3cccc(Cl)c3)CC2)cc2c(=O)n(C)c3ccccc3c21 | 5.27 µM
Cc1ccc2c(c1)-c1c(cnn1CC(=O)Nc1ccccc1N1CCN(C)CC1)CO2 | 9.77 µM
CCN(CC)CCNC(=O)c1cc2c(-c3ccc(Cl)cc3)nn(C)c2s1 | 3.88 µM
CCN1CCN(C(c2cccs2)C(C)NS(=O)(=O)c2ccc(Br)cc2)CC1 (centres undefined) | 10.1 µM (inactive)
Cc1ccc(OCC(O)Cn2c(=N)n(CCN3CCCCC3)c3ccccc32)cc1 (centres undefined) | 3.48 µM
Cc1oc(-c2ccc(Cl)cc2)nc1CN1CCC(C(=O)NCCCN2CCOCC2)CC1 | 17.8 µM (inactive)
CCN1CCCC1CNC(=O)C1CCN(Cc2nc(-c3cccc(Br)c3)oc2C)CC1 (centres undefined) | 1.14 µM
COc1ccc2cc3cc(C(=O)Nc4ccccc4N4CCN(C)CC4)oc3nc2c1 | 2.06 µM
CN(C)CCCN1c2ccccc2CCc2ccc(Cl)cc21 | 5.46 µM

Structure (SMILES) | EC50
O=C(NCCCN1CCN(c2ccc(F)cc2)CC1)c1cccc(N2CCCC2=O)c1 | 0.441 µM (inactive)
Oc1c(CN2CCCCC2)cc(COCc2ccccc2)c2cccnc12 | 2.96 µM
Cc1cc2c(=O)n(CC(=O)N3CCN(c4ccccc4)CC3)cnc2s1 | 0.0344 µM (inactive)
CCCc1cc(-c2n[nH]c(C)c2-c2ccc(C(=O)OCC)o2)c(O)cc1O | 3.64 µM (inactive)
CCN(CC)CC(=O)Nc1ccc(-c2nc3cc(NC(=O)CN(CC)CC)ccc3o2)cc1 | 8.06 µM
CCOc1ccc(-c2cc(C(=O)NCCCN3CCN(CC)CC3)c3ccccc3n2)cc1 | 11.1 µM (inactive)
O=C(c1ccccc1)c1ccc(N2CCNCC2)cc1 | > 30 µM (inactive)
COc1ccc(-c2cc(C(F)(F)F)nc(N3CCN(Cc4ccccc4)CC3)n2)cc1OC | 9.88 µM (inactive)
Cc1oc(-c2ccc(Cl)cc2)nc1CN1CCC(C(=O)N2CCN(Cc3ccccc3)CC2)CC1 | 3.29 µM
CN1CCN(CCCNC(=O)c2cc3c(-c4ccc(Cl)cc4)nn(C)c3s2)CC1 | 4.25 µM
CCN1CCN(c2ncc(C(=O)Nc3cc(Cl)c(OC)cc3OC)c3ccccc23)CC1 | 2.94 µM
COc1ccc(N2CCN(CCCNC(=O)CC3Oc4ccc(C)cc4NC3=O)CC2)cc1 (centres undefined) | 3.54 µM (inactive)
CCN1CCN(CCNC(=O)C2CCN(Cc3nc(-c4ccc(Cl)cc4)oc3C)CC2)CC1 | 8.88 µM (inactive)
Cc1cccc(-c2nsc(SCC(=O)Nc3nccs3)n2)c1 | 3.45 µM (inactive)
Cc1ccc(Cl)cc1N1CCN(C(=O)c2cc3c(=O)n(C)c4ccccc4c3n2C)CC1 | 0.155 µM
CCCN(CCC)CCNC(=O)C1CCN(Cc2nc(-c3ccc(Cl)cc3)oc2C)CC1 | 6.46 µM
COc1ccc(Cc2nc(-c3ccc(-n4cccc4)cc3)no2)cc1OC | 3.01 µM (inactive)
COc1ccccc1N1CCN(c2nc3ccccc3nc2C(C#N)C(=O)OC(C)C)CC1 (centres undefined) | 9.78 µM (inactive)
COc1ccc(CCN2CCC(Nc3nc4ccccc4n3Cc3ccc(F)cc3)CC2)cc1 | 7.83 µM (inactive)
CCOC(=O)c1c(C)n(C)c2ccc(OCC(O)CNC(CC)CO)cc12 (centres undefined) | 10.9 µM (inactive)
CCN(CC)CCCNC(=O)c1cc2c(-c3ccc(Cl)cc3)nn(C)c2s1 | 2.64 µM
CN(CC(O)COc1ccc(OCC(O)CN(C)C2CCCCC2)cc1)C1CCCCC1 (centres undefined) | 0.424 µM
Cc1ccccc1-c1nc(CN2CCC(C(=O)NCCCN3CC(C)CC(C)C3)CC2)c(C)o1 (centres undefined) | 2.11 µM
COc1ccc(Nc2nc(N)nc(CN3CCC(Cc4ccccc4)CC3)n2)cc1 | 2.46 µM
CN1CCN(c2cc3c(c4c2[nH]c2ccccc24)C(=O)CC(C)(C)C3)CC1 | 4.6 µM

Structure (SMILES) | EC50
CC1CCCCN1CCNC(=O)c1ccc2c(=O)n(CCc3ccccc3)c(=O)[nH]c2c1 (centres undefined) | 10.5 µM (inactive)
Cc1ccccc1-c1nc(CN2CCC(C(=O)NCc3cccnc3)CC2)c(C)o1 | 1.99 µM
CCn1c(=O)cc(SCC(=O)NCCN2CCN(Cc3ccccc3)CC2)c2ccccc21 | 14.5 µM (inactive)
CCOc1ccccc1NC(=O)c1nc[nH]c1C(=O)Nc1ccccc1OCC | 3.26 µM (inactive)
COc1cc2nc(N3CCN(C(=O)C4COc5ccccc5O4)CC3)nc(N)c2cc1OC (centres undefined) | 9.6 µM (inactive)
COC(=O)c1cc(-c2ccccc2)sc1NC(=O)c1cc(C)on1 | 0.326 µM (inactive)
CCN1CCCC1CNC(=O)c1cc2c(-c3ccc(Cl)cc3)nn(C)c2s1 (centres undefined) | 4.83 µM
Cc1cc(N2CCN(C)CC2)nc2ccc(NC(=O)c3ccc(Br)o3)cc12 | 8.72 µM
COc1ccc(N2CCN(CCCNC(=O)c3cc4sccc4n3C)CC2)cc1 | 10.1 µM (inactive)
Cn1c(=O)cc(SCC(=O)NCCCN2CCN(c3ccccc3F)CC2)c2ccccc21 | 1.17 µM
Cc1ccccc1-c1nc(CN2CCC(C(=O)NCCCN3CCOCC3)CC2)c(C)o1 | 3.44 µM (inactive)
CCOC(=O)c1ccccc1NC(=O)Cn1c(-c2nonc2N)nc2ccccc21 | 0.137 µM
CCN(CC)CCNC(=O)c1ccc(N2CCCCC2)c(NS(=O)(=O)c2ccc(C)cc2)c1 | 0.145 µM
Cc1ccccc1-c1nc(CN2CCCC(C(=O)NCCCN3CCOCC3)C2)c(C)o1 (centres undefined) | 13.9 µM (inactive)
CCCS(=O)(=O)N1CCCC(C(=O)NCCCN2CCN(c3ccc(F)cc3)CC2)C1 (centres undefined) | 0.328 µM (inactive)
Cc1ccc(C)c(N2CCN(CCCNC(=O)Cn3cc4c(n3)CCCCC4)CC2)c1 | 11.1 µM
COc1ccccc1N1CCN(Cc2cc(Br)c(O)c3ncccc23)CC1 | 1.09 µM
CN(CCNC(=O)C1CC(=O)N(c2ccc(F)c(Cl)c2)C1)Cc1ccccc1 (centres undefined) | 27.5 µM (inactive)
O=C(CCN1C(=O)COc2ccccc21)NCCCN1CCN(c2ccc(F)cc2)CC1 | > 30 µM (inactive)
Cn1c(=O)cc(OCC(=O)NCCCN2CCN(c3ccccc3F)CC2)c2ccccc21 | 14 µM (inactive)
CC(C)N1CCC2(CC1)N=C(c1ccc3c(c1)OCO3)CC(c1cc(Cl)ccc1O)N2 (centres undefined) | 1.86 µM
O=C(NCCCN1CCN(c2cccc(Cl)c2)CC1)c1cccc(N2CCCC2=O)c1 | 11.2 µM
COc1ccc(-c2oc3ncn(CCN4CCOCC4)c(=N)c3c2-c2ccc(OC)cc2)cc1 | 3.2 µM
